System: excised Arabidopsis nodes
Assay: Axillary bud outgrowth assay in Arabidopsis stem sections
Type: in vivo
Settings: 100 μM inhibitor, 1 μM NAA; Col-0; FIG. 5
Description: Axillary bud outgrowth assay in Arabidopsis stein sections—The assays were performed essentially as described (40) with the following modifications. Small Petri dishes (50 mm diameter, 20 mm depth) were filled with 10 ml of ATS (39) supplemented with 1% agar and 1% sucrose. Inhibitors and α-naphthalene acetic acid (NAA) were added to the agar before pouring to give 100 μM and 1 μM, respectively. Thus, when the central strip was cut out of the agar, both the apical and basal media contained both NAA and inhibitor. Any nodes in which the apical end had curled out of the media or which bud length was less than 2 mm at the end of the experiment were discounted. Measurement of the shoot length was performed every 24 hours. For each assay a logistic curve was fitted using Genstat (10th edition, VSN international) with the fitcurve directive and the lag phase was calculated by extrapolating the linear part of the curve and the initial plateau (see supplementary methods). The x value of where these two lines intersected represented the lag phase.
A logistic curve, y=A+C/(1+e^−B(t−m)), was fitted to the data for each shoot using GenStat (10th edition). The lag phase was then calculated using the equation m−(2/B) which effectively gave the t value (time) of the intercept of the two extrapolated lines from the linear part of the curve and the initial plateau.
Stimulation of shoot branching in Arabidopsis stem sections by application of inhibitor—Auxin inhibits the outgrowth of axillary buds in wild-type Arabidopsis plants. In the AtCCD7 and AtCCD8 null mutants (max3 and max4, respectively) the response to auxin is reduced, presumably due to a block in formation of an apocarotenoid hormone (recently shown (17,18) to be strigolactone or a related compound) that suppresses branching (19), and axillary buds extend earlier, leading to formation of side branches. An in vitro assay was previously developed in which the growth of axillary buds from isolated sections of Arabidopsis stem was used to assess max mutants (40). […]

SMILES | effect on timing of bud outgrowth (in words)
COc1ccc(C(=O)N(O)Cc2ccccc2)cc1 [Compound F1, N-benzyl-4-methoxybenzoyl hydroxamic acid] | relatively small activity
COc1ccc(C(=O)N(O)Cc2ccc(F)cc2)cc1 [Compound F2, N-(4-fluorobenzyl)-4-methoxybenzoyl hydroxamic acid] | relatively small activity

Reference: patent publication US9210928B2, “Plant development control composition” (Syngenta Crop Protection, LLC, priority 2008, dated 2015)
